The record followed here is ChEMBL document CHEMBL1201862, “PubChem BioAssay data set” (2004).

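Cells were grown in 96-well plates and exposed to each compound for 48 hours at five concentrations; endpoints were interpolated linearly between bracketing concentrations, or set to the highest concentration if not reached. GI50 is the concentration that inhibits growth by half.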 Activity calls are given as the source filed them. No stated cut-off is given here; in the data, active = GI50 up to about 1.1 µM and inactive = higher.

Some test systems named below: IGROV-1; HL-60; RXF 393; CAKI-1; HCT-15; SR; OVCAR-4; 786-0; DU-145; RPMI-8226; M14; PC-3; HOP-62; NCI-H522; HT-29; UACC-257; NCI-H23; COLO 205; SW-620; UO-31.
Common to all, as to assay: inhibition of tumour cell growth, NCI panel, 48 h

Turning to `Cc1nc(-n2nc(-c3ccccc3)cc2-c2ccccc2)sc1C(/C=C\c1ccc([N+](=O)[O-])cc1)=N/NC(=S)NN`, the GI50 was 40.7 µM (inactive) with IGROV-1; > 52.5 µM (inactive) in the assay on HL-60; 37.4 µM (inactive) with RXF 393; > 42.5 µM (inactive) with CAKI-1; 22.8 µM with HCT-15; 0.0948 µM (active) with SR. In addition, the GI50 is 26.2 µM (inactive) in the assay with OVCAR-4; 22.9 µM (inactive) with 786-0; 31 µM (inactive) in the assay on DU-145; > 48.8 µM (inactive) with RPMI-8226; 34.4 µM (inactive) with M14; 28.2 µM (inactive) in the assay with PC-3. Also, the GI50 in the assay with HOP-62 was 22 µM (inactive); in the assay on NCI-H522, 18.2 µM (inactive); with HT-29, 30.6 µM (inactive); in the assay with UACC-257, > 42.1 µM (inactive); with NCI-H23, 22.1 µM (inactive); with COLO 205 it was > 31.6 µM (inactive). Besides, the results for the GI50 in the assay with SW-620 and in the assay on UO-31 were > 74 µM (inactive) and > 43.9 µM (inactive), respectively.

Turning to `CC[C@]1(Cc2ccc(OC)c(OC)c2)C=[N+]([O-])O[C@H](OC2CCCCC2c2ccccc2)[C@@H]1OC(C)=O` (stereo not given in full), the GI50 in the assay on IGROV-1 is 39.4 µM (inactive); in the assay with HL-60, 18.1 µM (inactive); in the assay with RXF 393, 22.5 µM (inactive); with CAKI-1, 21.2 µM (inactive); with HCT-15, 37.2 µM; with SR it was 22.8 µM (inactive). The GI50 in the assay with OVCAR-4 was 33 µM (inactive); in the assay on 786-0 it was 45.3 µM (inactive); with DU-145 it was 49 µM (inactive); in the assay on RPMI-8226, 21.1 µM (inactive); with M14, 45.3 µM (inactive); in the assay with PC-3, 31.8 µM (inactive). For the same compound, the GI50 in the assay on HOP-62 is 64.6 µM (inactive); with NCI-H522, 25.6 µM (inactive); with HT-29, 45.1 µM (inactive); in the assay on UACC-257, 67.3 µM (inactive); with NCI-H23 it was 56.1 µM (inactive); with COLO 205 it was 19.9 µM (inactive). The values for the GI50 in the assay with SW-620 and in the assay on UO-31 were 40.2 µM (inactive) and 41.2 µM (inactive), respectively.

Turning to `Cc1cc2[nH]c(=NS(=O)(=O)c3cc(C)c(Cl)cc3S)[nH]c2cc1C`, the GI50 with IGROV-1 was 96.4 µM (inactive); in the assay with HL-60, 28.7 µM (inactive); in the assay on RXF 393, > 100 µM (inactive); in the assay with CAKI-1, > 100 µM (inactive); in the assay with HCT-15, 73.3 µM; in the assay with SR it was 19.4 µM (inactive). For the same compound, the GI50 in the assay on OVCAR-4 was > 100 µM (inactive); in the assay with 786-0, 61.7 µM (inactive); in the assay on DU-145, > 100 µM (inactive); in the assay on RPMI-8226, 45.9 µM (inactive); in the assay on M14 it was 86.5 µM (inactive); in the assay on PC-3 it was 66.4 µM (inactive). For the same compound, the GI50 with HOP-62 was 23.1 µM (inactive); with NCI-H522, > 100 µM (inactive); in the assay on HT-29 it was > 100 µM (inactive); in the assay with UACC-257, > 100 µM (inactive); in the assay with NCI-H23, > 100 µM (inactive); in the assay with COLO 205, > 100 µM (inactive). Also, the GI50 in the assay on SW-620 is 43.4 µM (inactive); in the assay with UO-31, 84.5 µM (inactive).

As to `O=C1c2ccccc2CC12Cc1ccccc1C2`, the GI50 in the assay with IGROV-1 is 87.5 µM (inactive); with HL-60, 16.6 µM (inactive); in the assay on RXF 393 it was 20.6 µM (inactive); in the assay on CAKI-1 it was 48.3 µM (inactive); with HCT-15, 49.7 µM; in the assay with SR it was 6.12 µM (inactive). Besides, the GI50 in the assay with OVCAR-4 was 16.7 µM (inactive); with 786-0 it was 36 µM (inactive); in the assay on DU-145, 86.3 µM (inactive); in the assay with RPMI-8226, 31.7 µM (inactive); in the assay on M14, 49.1 µM (inactive); in the assay on PC-3 it was 42 µM (inactive). Further, the GI50 in the assay on HOP-62 is 83.9 µM (inactive); with NCI-H522, 36.6 µM (inactive); with HT-29 it was 23.4 µM (inactive); with UACC-257, 18.9 µM (inactive); with NCI-H23, > 100 µM (inactive); in the assay on COLO 205, 44.7 µM (inactive). Further, the GI50 is > 100 µM (inactive) with SW-620 and 40.1 µM (inactive) in the assay on UO-31.

On to `CC(NS(C)(=O)=O)c1ccccc1` (stereo not given), for which the GI50 in the assay with IGROV-1 was > 100 µM (inactive); in the assay with HL-60, > 100 µM (inactive); with RXF 393 it was > 100 µM (inactive); in the assay with CAKI-1, > 100 µM (inactive); with HCT-15 it was above 100 µM; in the assay on SR, > 100 µM (inactive). In addition, the GI50 in the assay on OVCAR-4, in the assay on 786-0, with DU-145, in the assay with RPMI-8226, with M14 and in the assay with PC-3 was > 100 µM (inactive) each time. The GI50 in the assay on HOP-62, in the assay on NCI-H522, in the assay with HT-29, in the assay with UACC-257, with NCI-H23 and with COLO 205 was > 100 µM (inactive) each time. For the same compound, the GI50 in the assay with SW-620 and in the assay with UO-31 was > 100 µM (inactive) in each case.

For the compound `CNCCCNC1(c2cc3ccccc3s2)CCCCC1`, the GI50 with IGROV-1 is 12.8 µM (inactive); in the assay with HL-60, 1.43 µM (inactive); in the assay with RXF 393, 1.36 µM (inactive); with CAKI-1, 10.1 µM (inactive); in the assay on HCT-15 it was 8.43 µM; in the assay with SR, 1.52 µM (inactive). In addition, the GI50 in the assay on OVCAR-4 was 13.5 µM (inactive); with 786-0, 3.47 µM (inactive); with DU-145 it was 11.9 µM (inactive); in the assay with RPMI-8226 it was 2.04 µM (inactive); in the assay on M14, 3.8 µM (inactive); with PC-3, 9.44 µM (inactive). Besides, the GI50 was 8.93 µM (inactive) in the assay on HOP-62; 5.64 µM (inactive) with NCI-H522; 2.46 µM (inactive) with HT-29; 1.76 µM (inactive) in the assay on UACC-257; 16.4 µM (inactive) in the assay with NCI-H23; 1.79 µM (inactive) with COLO 205. The GI50 with SW-620 is 12.3 µM (inactive); in the assay with UO-31, 2.32 µM (inactive).

Turning to `COC1=C(C)C(=O)C2=C(C1=O)C1C3CC4=C(C(=O)C(OC)=C(C)C4=O)C(CNC(=O)C(C)O)N3C(C#N)C(C2)N1C` (stereo not given), the GI50 in the assay on IGROV-1 is < 0.01 µM (active); in the assay on HL-60, < 0.01 µM (active); in the assay with RXF 393, < 0.0121 µM (active); in the assay on CAKI-1 it was 0.037 µM (active); in the assay with HCT-15, 0.0169 µM; with SR, < 0.01 µM (active). Besides, the GI50 was 0.026 µM (active) in the assay on OVCAR-4; < 0.0113 µM (active) in the assay on 786-0; 0.016 µM (active) in the assay on DU-145; < 0.01 µM (active) in the assay with RPMI-8226; < 0.0112 µM (active) with M14; < 0.011 µM (active) in the assay with PC-3. Besides, the GI50 in the assay on HOP-62 is 0.0149 µM (active); in the assay with NCI-H522 it was < 0.01 µM (active); in the assay on HT-29, < 0.01 µM (active); with UACC-257, < 0.01 µM (active); with NCI-H23 it was < 0.0178 µM (active); with COLO 205, < 0.01 µM (active). Further, the GI50 in the assay with SW-620 was < 0.01 µM (active); in the assay with UO-31 it was 0.101 µM (active).

As for `CC(C)(C)CC(C)(C)NC(=S)NO`, the GI50 is > 100 µM (inactive) in the assay on IGROV-1; > 100 µM (inactive) in the assay with HL-60; > 100 µM (inactive) in the assay with RXF 393; > 100 µM (inactive) in the assay on CAKI-1; above 100 µM in the assay with HCT-15; > 100 µM (inactive) with SR. The GI50 in the assay on OVCAR-4, with 786-0, in the assay on DU-145, with RPMI-8226, in the assay with M14 and in the assay on PC-3 was > 100 µM (inactive) in each case. In addition, the GI50 with HOP-62, in the assay on NCI-H522, with HT-29, with UACC-257, in the assay on NCI-H23 and in the assay with COLO 205 was > 100 µM (inactive) throughout. The GI50 in the assay on SW-620 and with UO-31 was > 100 µM (inactive) throughout.

Turning to `COc1ccc(CCNC(=O)[C@H]2CCCC[C@@H]2CCO)cc1OC`, the GI50 in the assay on IGROV-1 was > 100 µM (inactive); with HL-60, > 100 µM (inactive); in the assay on RXF 393, > 100 µM (inactive); with CAKI-1, > 100 µM (inactive); with HCT-15 it was above 100 µM; in the assay with SR, > 100 µM (inactive). Also, the GI50 in the assay with OVCAR-4, with 786-0, with DU-145, in the assay on RPMI-8226, in the assay with M14 and in the assay with PC-3 was > 100 µM (inactive) each time. For the same compound, the GI50 in the assay with HOP-62, with NCI-H522, in the assay on HT-29, with UACC-257, in the assay with NCI-H23 and in the assay on COLO 205 was > 100 µM (inactive) each time. Moreover, the GI50 in the assay on SW-620 is > 100 µM (inactive); in the assay on UO-31 it was 54.7 µM (inactive).

Consider `CCN(CC)CCNC(=O)c1ccc(C)c(OCc2ccccc2)c1[N+](=O)[O-]`, for which the GI50 with IGROV-1 was 62.8 µM (inactive); in the assay with HL-60, 19.5 µM (inactive); in the assay on RXF 393 it was 52.5 µM (inactive); in the assay on CAKI-1 it was 20.7 µM (inactive); in the assay on HCT-15, 21 µM; with SR, 27.7 µM (inactive). Besides, the GI50 in the assay on OVCAR-4 is 56.8 µM (inactive); in the assay with 786-0, 33.3 µM (inactive); with DU-145 it was > 90.2 µM (inactive); with RPMI-8226, 25.8 µM (inactive); with M14, 17.8 µM (inactive); in the assay on PC-3, 45.3 µM (inactive). In addition, the GI50 with HOP-62 is 28.6 µM (inactive); with NCI-H522, 27 µM (inactive); in the assay on HT-29, 19.1 µM (inactive); with UACC-257, 19.1 µM (inactive); in the assay with NCI-H23 it was 54.3 µM (inactive); in the assay on COLO 205, 16 µM (inactive). For the same compound, the GI50 is 18.3 µM (inactive) with SW-620 and 21 µM (inactive) with UO-31.
